Reference: patent publication US9302999B2, “Substituted triazoles as herbicides” (E. I. DU PONT DE NEMOURS AND COMPANY, priority 2012, dated 2016)

Tests used:
Format in all cases: in vivo
[1] = tested on: barnyardgrass (Echinochloa crus-galli); test: Test A pre-/postemergence: barnyardgrass
In short: (§1)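 Soil medium was loam blended with sand; treatments pre- and postemergence were applied concurrently, postemergence at one- to two-leaf stage. Approximately ten days in greenhouse preceded visual comparison with untreated controls, scored 0 (no effect) to 100 (complete control).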

[2] = tested on: crabgrass, large (large crabgrass, Digitaria sanguinalis); test: Test A pre-/postemergence: crabgrass, large
In short: as §1

[3] = tested on: foxtail, giant (giant foxtail, Setaria faberii); test: Test A pre-/postemergence: foxtail, giant
In short: as §1

[4] = tested on: morningglory (Ipomoea spp.); test: Test A pre-/postemergence: morningglory; conditions: for Morningglory plant response rating: visual rating on 0 to 100 scale (0 no effect, 100 complete control), approximately ten days
In short: as §1

[5] = tested on: pigweed (Amaranthus retroflexus); test: Test A pre-/postemergence: pigweed; conditions: for Pigweed plant response rating: visual rating on 0 to 100 scale (0 no effect, 100 complete control), approximately ten days
In short: as §1

[6] = tested on: velvetleaf (Abutilon theophrasti); test: Test A pre-/postemergence: velvetleaf; conditions: for Velvetleaf plant response rating: visual rating on 0 to 100 scale (0 no effect, 100 complete control), approximately ten days
In short: as §1

[7] = tested on: wheat (Triticum aestivum); test: Test A pre-/postemergence: wheat; conditions: for Wheat plant response rating: visual rating on 0 to 100 scale (0 no effect, 100 complete control), approximately ten days
In short: as §1

corn (Zea mays) = test: Test A pre-/postemergence: corn
In short: as §1

rice (Oryza sativa) = test: Test B flooded paddy: rice; conditions: Flood; 250 g ai/ha; applied to paddy water at 2-leaf stage; visually evaluated after 13 to 15 days
In short: (§2)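 Visual ratings (0 = no effect, 100 = complete control) versus untreated controls were taken 13–15 days after treatment of greenhouse plants. Treatment was added to paddy water held at 3 cm depth on 2-leaf-stage seedlings.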

[8] = tested on: sedge, umbrella (small-flower umbrella sedge Cyperus difformis); test: Test B flooded paddy: sedge, umbrella; conditions: Flood; 250 g ai/ha; applied to paddy water at 2-leaf stage; visually evaluated after 13 to 15 days
In short: as §2

[9] = tested on: ducksalad (Heteranthera limosa); test: Test B flooded paddy: ducksalad; conditions: Flood; 250 g ai/ha; applied to paddy water at 2-leaf stage; visually evaluated after 13 to 15 days
In short: as §2

[10] = tested on: barnyardgrass (Echinochloa crus-galli); test: Test B flooded paddy: barnyardgrass; conditions: Flood; 250 g ai/ha; applied to paddy water at 2-leaf stage; visually evaluated after 13 to 15 days
In short: as §2

[11] = Postemergence, 125 g ai/ha, 0 to 100 scale, 0 is no effect, 100 is complete control
[12] = Postemergence, 500 g ai/ha, visual rating on 0 to 100 scale (0 no effect, 100 complete control), approximately ten days
[13] = Preemergence, 125 g ai/ha, 0 to 100 scale where 0 is no effect and 100 is complete control
[14] = Preemergence, 500 g ai/ha, 0 to 100 scale (0 no effect, 100 complete control)

Structure (SMILES)	Barnyardgrass plant response rating [1, 12]	Plant response rating, Barnyardgrass [1, 13]	Plant response rating, Barnyardgrass [1, 14]	Crabgrass, Large plant response rating [2, 12]	Plant response rating, Crabgrass, Large [2, 13]	Plant response rating, Crabgrass, Large [2, 14]	Foxtail, Giant plant response rating [3, 12]	Plant response rating, Foxtail, Giant [3, 13]	Plant response rating, Foxtail, Giant [3, 14]	Plant response rating, Morningglory [4, 11]	Morningglory plant response rating ([4]; Postemergence, 500 g ai/ha)	Plant response rating, Morningglory [4, 13]	Plant response rating, Morningglory [4, 14]	Plant response rating, Pigweed [5, 11]	Pigweed plant response rating ([5]; Postemergence, 500 g ai/ha)	Plant response rating, Pigweed [5, 13]	Plant response rating, Pigweed [5, 14]	Plant response rating, Velvetleaf [6, 11]	Plant response rating, Velvetleaf [6, 13]	Plant response rating, Velvetleaf [6, 14]	other results
Cc1cc(Oc2nn(-c3ccc(F)cc3)nc2C)ccn1 [Compound 135]	10	0	0	20	0	0	10	0	0	0	10	0	0	20	50	0	0	10	0	0	Barnyardgrass plant response rating [1, 11]: 0; Crabgrass, Large plant response rating [2, 11]: 10; Foxtail, Giant plant response rating [3, 11]: 0; Velvetleaf plant response rating ([6]; Postemergence, 500 g ai/ha): 30; Plant response rating, Wheat [7, 11]: 0; Wheat plant response rating ([7]; Postemergence, 500 g ai/ha): 0; Plant response rating, Wheat [7, 13]: 0; Plant response rating, Wheat [7, 14]: 0; Corn plant response rating (corn (Zea mays); [11]): 10; Corn plant response rating (corn (Zea mays); [12]): 20; Plant response rating, Corn (corn (Zea mays); [13]): 0; Plant response rating, Corn (corn (Zea mays); [14]): 0; Plant response rating, Rice (0 to 100 scale, 0 is no effect, 100 is complete control) (rice (Oryza sativa)): 0; Plant response rating, Sedge, Umbrella (0 to 100 scale, 0 is no effect, 100 is complete control) [8]: 0; Plant response rating, Ducksalad (0 to 100 scale, 0 is no effect, 100 is complete control) [9]: 0; Plant response rating, Barnyardgrass (0 to 100 scale, 0 is no effect, 100 is complete control) [10]: 0
Cc1nn(-c2ccc(F)c(F)c2)nc1Cc1ccnc(C(F)F)c1 [Compound 136]	90	70	100	90	80	100	90	100	100	70	100	20	60	100	100	90	90	90	30	60	Barnyardgrass plant response rating [1, 11]: 60; Crabgrass, Large plant response rating [2, 11]: 60; Foxtail, Giant plant response rating [3, 11]: 90; Velvetleaf plant response rating ([6]; Postemergence, 500 g ai/ha): 100; Plant response rating, Wheat [7, 11]: 30; Wheat plant response rating ([7]; Postemergence, 500 g ai/ha): 30; Plant response rating, Wheat [7, 13]: 0; Plant response rating, Wheat [7, 14]: 10; Corn plant response rating (corn (Zea mays); [11]): 20; Corn plant response rating (corn (Zea mays); [12]): 40; Plant response rating, Corn (corn (Zea mays); [13]): 0; Plant response rating, Corn (corn (Zea mays); [14]): 10; Plant response rating, Rice (0 to 100 scale, 0 is no effect, 100 is complete control) (rice (Oryza sativa)): 35; Plant response rating, Sedge, Umbrella (0 to 100 scale, 0 is no effect, 100 is complete control) [8]: 85; Plant response rating, Ducksalad (0 to 100 scale, 0 is no effect, 100 is complete control) [9]: 75; Plant response rating, Barnyardgrass (0 to 100 scale, 0 is no effect, 100 is complete control) [10]: 45
CON=C(c1cccc(C(F)(F)F)c1)c1nn(-c2ccnc(C(F)(F)F)c2)nc1C [Compound 140]	30	0	30	50	20	50	50	20	70	50	90	0	0	100	100	30	80	20	20	30	Barnyardgrass plant response rating [1, 11]: 10; Crabgrass, Large plant response rating [2, 11]: 20; Foxtail, Giant plant response rating [3, 11]: 20; Velvetleaf plant response rating ([6]; Postemergence, 500 g ai/ha): 70; Plant response rating, Wheat [7, 11]: 10; Wheat plant response rating ([7]; Postemergence, 500 g ai/ha): 20; Plant response rating, Wheat [7, 13]: 0; Plant response rating, Wheat [7, 14]: 0; Corn plant response rating (corn (Zea mays); [11]): 20; Corn plant response rating (corn (Zea mays); [12]): 30; Plant response rating, Corn (corn (Zea mays); [13]): 0; Plant response rating, Corn (corn (Zea mays); [14]): 0; Plant response rating, Rice (0 to 100 scale, 0 is no effect, 100 is complete control) (rice (Oryza sativa)): 0; Plant response rating, Sedge, Umbrella (0 to 100 scale, 0 is no effect, 100 is complete control) [8]: 0; Plant response rating, Ducksalad (0 to 100 scale, 0 is no effect, 100 is complete control) [9]: 0; Plant response rating, Barnyardgrass (0 to 100 scale, 0 is no effect, 100 is complete control) [10]: 30
Cc1nn(-c2ccc(F)cc2)nc1Cc1cccc(C(F)(F)F)c1 [Compound 157]	70	20	100	80	20	90	90	90	100	60	80	0	0	100	100	80	100	40	0	0	Plant response rating, Barnyardgrass [1, 11]: 20; Plant response rating, Crabgrass, Large [2, 11]: 40; Plant response rating, Foxtail, Giant [3, 11]: 80; Plant response rating, Wheat [7, 11]: 0; Wheat plant response rating ([7]; Postemergence, 500 g ai/ha): 20; Plant response rating, Wheat [7, 13]: 0; Plant response rating, Wheat [7, 14]: 0; Plant response rating, Corn (corn (Zea mays); [11]): 20; Corn plant response rating (corn (Zea mays); [12]): 40; Plant response rating, Corn (corn (Zea mays); [13]): 0; Plant response rating, Corn (corn (Zea mays); [14]): 0; Plant response rating, Rice (0 to 100 scale, 0 is no effect, 100 is complete control) (rice (Oryza sativa)): 0; Plant response rating, Sedge, Umbrella (0 to 100 scale, 0 is no effect, 100 is complete control) [8]: 40; Plant response rating, Ducksalad (0 to 100 scale, 0 is no effect, 100 is complete control) [9]: 20; Plant response rating, Barnyardgrass (0 to 100 scale, 0 is no effect, 100 is complete control) [10]: 0
